In ChEMBL document CHEMBL1201862, “PubChem BioAssay data set” (2004):
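48-hour exposure; five concentrations; linearly interpolated endpoints. GI50 is the concentration that inhibits growth by half.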 Activity calls are given as the source filed them. Rule as the data show it: active = GI50 up to about 1.1 µM and inactive = higher.

Legend:
Assay in all cases: growth of human tumour cells (NCI), 48 h
K562 = tested on: K562
MOLT-4 = tested on: MOLT-4
UACC-62 = tested on: UACC-62
HOP-92 = tested on: HOP-92
HCC 2998 = tested on: HCC 2998
UACC-257 = tested on: UACC-257
OVCAR-8 = tested on: OVCAR-8
LXFL 529 = tested on: LXFL 529
CCRF-CEM = tested on: CCRF-CEM
SNB-75 = tested on: SNB-75
SF-539 = tested on: SF-539
RPMI-8226 = tested on: RPMI-8226
SK-MEL-2 = tested on: SK-MEL-2
A549 = tested on: A549
HCT-116 = tested on: HCT-116
OVCAR-5 = tested on: OVCAR-5
CAKI-1 = tested on: CAKI-1
SK-MEL-28 = tested on: SK-MEL-28
NCI-H23 = tested on: NCI-H23
U-251 = tested on: U-251
DMS-273 = tested on: DMS-273
SK-MEL-5 = tested on: SK-MEL-5
KM-20L2 = tested on: KM-20L2
ACHN = tested on: ACHN
SW-620 = tested on: SW-620
RXF 393 = tested on: RXF 393
DMS-114 = tested on: DMS-114
EKVX = tested on: EKVX
UO-31 = tested on: UO-31
NCI-H460 = tested on: NCI-H460
SN12C = tested on: SN12C
HT-29 = tested on: HT-29
SF-268 = tested on: SF-268
OVCAR-4 = tested on: OVCAR-4
SK-OV-3 = tested on: SK-OV-3
DLD-1 = tested on: DLD-1
XF498 = tested on: XF498
786-0 = tested on: 786-0
SF-295 = tested on: SF-295
SR = tested on: SR
KM12 = tested on: KM12
NCI-H522 = tested on: NCI-H522
HOP-18 = tested on: HOP-18
TK-10 = tested on: TK-10
Malme-3M = tested on: Malme-3M
SNB-19 = tested on: SNB-19
OVCAR-3 = tested on: OVCAR-3
NCI-H226 = tested on: NCI-H226
LOX IMVI = tested on: LOX IMVI
HOP-62 = tested on: HOP-62
HCT-15 = tested on: HCT-15
M14 = tested on: M14
SNB-78 = tested on: SNB-78
COLO 205 = tested on: COLO 205
MDA-MB-435 = tested on: MDA-MB-435
HL-60 = tested on: HL-60
NCI/ADR-RES = tested on: NCI/ADR-RES
MDA-N = tested on: MDA-N
DU-145 = tested on: DU-145
A498 = tested on: A498
Hs-578T = tested on: Hs-578T
PC-3 = tested on: PC-3
MCF7 = tested on: MCF7
T47D = tested on: T47D
MDA-MB-231 = tested on: MDA-MB-231
IGROV-1 = tested on: IGROV-1

CC1(C)OC(=O)C(c2cccs2)C(=O)O1
GI50 (K562): > 100000 nM (inactive)
GI50 (MOLT-4): > 100000 nM (inactive)
GI50 (UACC-62): > 100000 nM (inactive)
GI50 (HOP-92): > 100000 nM (inactive)
GI50 (HCC 2998): > 100000 nM (inactive)
GI50 (UACC-257): > 100000 nM (inactive)
GI50 (OVCAR-8): > 100000 nM (inactive)
GI50 (LXFL 529): > 100000 nM (inactive)
GI50 (CCRF-CEM): > 100000 nM (inactive)
GI50 (SNB-75): > 100000 nM (inactive)
GI50 (SF-539): > 100000 nM (inactive)
GI50 (RPMI-8226): > 100000 nM (inactive)
GI50 (SK-MEL-2): > 100000 nM (inactive)
GI50 (A549): > 100000 nM (inactive)
GI50 (HCT-116): > 100000 nM (inactive)
GI50 (OVCAR-5): > 100000 nM (inactive)
GI50 (CAKI-1): > 100000 nM (inactive)
GI50 (SK-MEL-28): > 100000 nM (inactive)
GI50 (NCI-H23): > 100000 nM (inactive)
GI50 (U-251): > 100000 nM (inactive)
GI50 (DMS-273): > 100000 nM (inactive)
GI50 (SK-MEL-5): > 100000 nM (inactive)
GI50 (KM-20L2): > 100000 nM (inactive)
GI50 (ACHN): > 100000 nM (inactive)
GI50 (SW-620): > 100000 nM (inactive)
GI50 (RXF 393): > 100000 nM (inactive)
GI50 (DMS-114): > 100000 nM (inactive)
GI50 (EKVX): > 100000 nM (inactive)
GI50 (UO-31): > 100000 nM (inactive)
GI50 (NCI-H460): > 100000 nM (inactive)
GI50 (SN12C): > 100000 nM (inactive)
GI50 (HT-29): > 100000 nM (inactive)
GI50 (SF-268): > 100000 nM (inactive)
GI50 (OVCAR-4): > 100000 nM (inactive)
GI50 (SK-OV-3): > 100000 nM (inactive)
GI50 (DLD-1): > 100000 nM (inactive)
GI50 (XF498): > 100000 nM (inactive)
GI50 (786-0): > 100000 nM (inactive)
GI50 (SF-295): > 100000 nM (inactive)
GI50 (SR): > 100000 nM (inactive)
GI50 (KM12): > 100000 nM (inactive)
GI50 (NCI-H522): > 100000 nM (inactive)
GI50 (HOP-18): > 100000 nM (inactive)
GI50 (TK-10): > 100000 nM (inactive)
GI50 (Malme-3M): > 100000 nM (inactive)
GI50 (SNB-19): > 100000 nM (inactive)
GI50 (OVCAR-3): > 100000 nM (inactive)
GI50 (NCI-H226): > 100000 nM (inactive)
GI50 (LOX IMVI): > 100000 nM (inactive)
GI50 (HOP-62): > 100000 nM (inactive)
GI50 (HCT-15): > 100000 nM
GI50 (M14): > 100000 nM (inactive)
GI50 (SNB-78): > 100000 nM (inactive)
GI50 (COLO 205): > 100000 nM (inactive)

O=C1C=C2S[C@H]3C[C@]2(C=C1Br)C1=C(N3)C(=O)c2[nH]cc3c2C1=NCC3 [(+)-DISCORHABDIN B]
GI50 (K562): 209 nM (active)
GI50 (MDA-MB-435): 158 nM (active)
GI50 (MOLT-4): 148 nM (active)
GI50 (UACC-62): 555 nM (active)
GI50 (HOP-92): 973 nM (active)
GI50 (HCC 2998): 2300 nM (inactive)
GI50 (UACC-257): 213 nM (active)
GI50 (OVCAR-8): 541 nM (active)
GI50 (LXFL 529): 190 nM (active)
GI50 (CCRF-CEM): 234 nM (active)
GI50 (SNB-75): 1550 nM (inactive)
GI50 (SF-539): 1630 nM (inactive)
GI50 (RPMI-8226): 305 nM (active)
GI50 (SK-MEL-2): 469 nM (active)
GI50 (HL-60): 85.3 nM (active)
GI50 (A549): 2470 nM (inactive)
GI50 (HCT-116): 103 nM (active)
GI50 (OVCAR-5): 1850 nM (inactive)
GI50 (CAKI-1): 1690 nM (inactive)
GI50 (SK-MEL-28): 1400 nM (inactive)
GI50 (NCI-H23): 1220 nM (inactive)
GI50 (NCI/ADR-RES): 205 nM (active)
GI50 (U-251): 1750 nM (inactive)
GI50 (DMS-273): 1170 nM (inactive)
GI50 (SK-MEL-5): 1040 nM (active)
GI50 (KM-20L2): 463 nM (active)
GI50 (ACHN): 632 nM (active)
GI50 (SW-620): 85.7 nM (active)
GI50 (RXF 393): 272 nM (active)
GI50 (EKVX): 1680 nM (inactive)
GI50 (UO-31): 1570 nM (inactive)
GI50 (NCI-H460): 3050 nM (inactive)
GI50 (SN12C): 1230 nM (inactive)
GI50 (HT-29): 344 nM (active)
GI50 (MDA-N): 165 nM (active)
GI50 (DU-145): 1920 nM (inactive)
GI50 (A498): 5650 nM (inactive)
GI50 (SF-268): 1540 nM (inactive)
GI50 (OVCAR-4): 218 nM (active)
GI50 (SK-OV-3): 5620 nM (inactive)
GI50 (Hs-578T): 1500 nM (inactive)
GI50 (PC-3): 1830 nM (inactive)
GI50 (DLD-1): 617 nM (active)
GI50 (MCF7): 520 nM (active)
GI50 (XF498): 1420 nM (inactive)
GI50 (786-0): 883 nM (active)
GI50 (SF-295): 1500 nM (inactive)
GI50 (SR): 2690 nM (inactive)
GI50 (T47D): 283 nM (active)
GI50 (MDA-MB-231): 305 nM (active)
GI50 (KM12): 1600 nM (inactive)
GI50 (NCI-H522): 273 nM (active)
GI50 (HOP-18): 1780 nM (inactive)
GI50 (TK-10): 1400 nM (inactive)
GI50 (Malme-3M): 115 nM (active)
GI50 (SNB-19): 12400 nM (inactive)
GI50 (OVCAR-3): 347 nM (active)
GI50 (NCI-H226): 2240 nM (inactive)
GI50 (LOX IMVI): 347 nM (active)
GI50 (HCT-15): 745 nM
GI50 (M14): 726 nM (active)
GI50 (SNB-78): 1780 nM (inactive)
GI50 (COLO 205): 72.1 nM (active)
GI50 (IGROV-1): 1530 nM (inactive)
